# Legend:
# Lung [1] = test: Biodistribution in mouse S180 cells xenografted Kunming mouse lung at 370 kBq/0.1 mL, iv after 120 mins by gamma counting; type: ADME, organism-based, CCRF S-180; settings: in vivo, 2 h
# Kidney [2] = test: Biodistribution in mouse S180 cells xenografted Kunming mouse kidney at 370 kBq/0.1 mL, iv after 120 mins by gamma counting; type: ADME, organism-based, CCRF S-180; settings: in vivo, 2 h
# Muscle tissue [3] = test: Biodistribution in mouse S180 cells xenografted Kunming mouse muscle at 370 kBq/0.1 mL, iv after 120 mins by gamma counting; type: ADME, organism-based, CCRF S-180; settings: in vivo, 2 h
# Blood [4] = test: Biodistribution in mouse S180 cells xenografted Kunming mouse blood at 370 kBq/0.1 mL, iv after 120 mins by gamma counting; type: ADME, organism-based, CCRF S-180; settings: in vivo, 2 h
# Nucleic Acid [5] = test: Ratio of drug level in tumor to muscle in mouse S180 cells xenografted Kunming mouse at 370 kBq/0.1 mL, iv after 120 mins by gamma counting; type: ADME, organism-based, CCRF S-180; settings: in vivo, 2 h
# Nucleic Acid [6] = test: Ratio of drug level in tumor to blood in mouse S180 cells xenografted Kunming mouse at 370 kBq/0.1 mL, iv after 120 mins by gamma counting; type: ADME, organism-based, CCRF S-180; settings: tumour, 2 h
# [7] = Partition coefficient, log P of the compound; type: physicochemical; settings: octanol/water
# Plasma = test: Metabolic stability in mouse plasma at 3.7 MBq after 1 to 2 hrs; type: ADME, cell-free
# CCRF S-180 [8] = test: Cellular uptake in mouse S180 cells relative to [18F]FDG; type: ADME, cell-based
# CCRF S-180 [9] = test: Cellular uptake in mouse S180 cells after 60 mins; type: ADME, cell-based; settings: ccrf s-180, 1 h
# Heart [10] = test: Biodistribution in mouse S180 cells xenografted Kunming mouse heart at 370 kBq/0.1 mL, iv after 5 mins by gamma counting; type: ADME, organism-based, CCRF S-180; settings: in vivo
# Liver [11] = test: Biodistribution in mouse S180 cells xenografted Kunming mouse liver at 370 kBq/0.1 mL, iv after 5 mins by gamma counting; type: ADME, organism-based, CCRF S-180; settings: in vivo
# Lung [12] = test: Biodistribution in mouse S180 cells xenografted Kunming mouse lung at 370 kBq/0.1 mL, iv after 5 mins by gamma counting; type: ADME, organism-based, CCRF S-180; settings: in vivo
# Brain [13] = test: Biodistribution in mouse S180 cells xenografted Kunming mouse brain at 370 kBq/0.1 mL, iv after 5 mins by gamma counting; type: ADME, organism-based, CCRF S-180; settings: in vivo
# Muscle tissue [14] = test: Biodistribution in mouse S180 cells xenografted Kunming mouse muscle at 370 kBq/0.1 mL, iv after 5 mins by gamma counting; type: ADME, organism-based, CCRF S-180; settings: in vivo
# Blood [15] = test: Biodistribution in mouse S180 cells xenografted Kunming mouse blood at 370 kBq/0.1 mL, iv after 5 mins by gamma counting; type: ADME, organism-based, CCRF S-180; settings: in vivo
# Mus musculus [16] = test: Biodistribution in mouse S180 cells xenografted Kunming mouse tumor at 370 kBq/0.1 mL, iv after 5 mins by gamma counting; type: ADME, organism-based, Neoplasm, CCRF S-180; settings: in vivo
# Nucleic Acid [17] = test: Ratio of drug level in tumor to muscle in mouse S180 cells xenografted Kunming mouse at 370 kBq/0.1 mL, iv after 5 mins by gamma counting; type: ADME, organism-based, CCRF S-180; settings: in vivo
# Heart [18] = test: Biodistribution in mouse S180 cells xenografted Kunming mouse heart at 370 kBq/0.1 mL, iv after 15 mins by gamma counting; type: ADME, organism-based, CCRF S-180; settings: in vivo, 0.25 h
# Liver [19] = test: Biodistribution in mouse S180 cells xenografted Kunming mouse liver at 370 kBq/0.1 mL, iv after 15 mins by gamma counting; type: ADME, organism-based, CCRF S-180; settings: in vivo, 0.25 h
# Kidney [20] = test: Biodistribution in mouse S180 cells xenografted Kunming mouse kidney at 370 kBq/0.1 mL, iv after 15 mins by gamma counting; type: ADME, organism-based, CCRF S-180; settings: in vivo, 0.25 h
# Brain [21] = test: Biodistribution in mouse S180 cells xenografted Kunming mouse brain at 370 kBq/0.1 mL, iv after 15 mins by gamma counting; type: ADME, organism-based, CCRF S-180; settings: in vivo, 0.25 h
# Muscle tissue [22] = test: Biodistribution in mouse S180 cells xenografted Kunming mouse muscle at 370 kBq/0.1 mL, iv after 15 mins by gamma counting; type: ADME, organism-based, CCRF S-180; settings: in vivo, 0.25 h
# Blood [23] = test: Biodistribution in mouse S180 cells xenografted Kunming mouse blood at 370 kBq/0.1 mL, iv after 15 mins by gamma counting; type: ADME, organism-based, CCRF S-180; settings: in vivo, 0.25 h
# Nucleic Acid [24] = test: Ratio of drug level in tumor to brain in mouse S180 cells xenografted Kunming mouse at 370 kBq/0.1 mL, iv after 15 mins by gamma counting; type: ADME, organism-based, CCRF S-180; settings: in vivo, 0.25 h
# Liver [25] = test: Biodistribution in mouse S180 cells xenografted Kunming mouse liver at 370 kBq/0.1 mL, iv after 30 mins by gamma counting; type: ADME, organism-based, CCRF S-180; settings: in vivo, 0.5 h
# Lung [26] = test: Biodistribution in mouse S180 cells xenografted Kunming mouse lung at 370 kBq/0.1 mL, iv after 30 mins by gamma counting; type: ADME, organism-based, CCRF S-180; settings: in vivo, 0.5 h
# Brain [27] = test: Biodistribution in mouse S180 cells xenografted Kunming mouse brain at 370 kBq/0.1 mL, iv after 30 mins by gamma counting; type: ADME, organism-based, CCRF S-180; settings: in vivo, 0.5 h
# Blood [28] = test: Biodistribution in mouse S180 cells xenografted Kunming mouse blood at 370 kBq/0.1 mL, iv after 30 mins by gamma counting; type: ADME, organism-based, CCRF S-180; settings: in vivo, 0.5 h
# Mus musculus [29] = test: Biodistribution in mouse S180 cells xenografted Kunming mouse tumor at 370 kBq/0.1 mL, iv after 30 mins by gamma counting; type: ADME, organism-based, Neoplasm, CCRF S-180; settings: in vivo, 0.5 h
# Nucleic Acid [30] = test: Ratio of drug level in tumor to brain in mouse S180 cells xenografted Kunming mouse at 370 kBq/0.1 mL, iv after 30 mins by gamma counting; type: ADME, organism-based, CCRF S-180; settings: in vivo, 0.5 h
# Nucleic Acid [31] = test: Ratio of drug level in tumor to blood in mouse S180 cells xenografted Kunming mouse at 370 kBq/0.1 mL, iv after 30 mins by gamma counting; type: ADME, organism-based, CCRF S-180; settings: tumour, 0.5 h
# Heart [32] = test: Biodistribution in mouse S180 cells xenografted Kunming mouse heart at 370 kBq/0.1 mL, iv after 60 mins by gamma counting; type: ADME, organism-based, CCRF S-180; settings: in vivo, 1 h
# Liver [33] = test: Biodistribution in mouse S180 cells xenografted Kunming mouse liver at 370 kBq/0.1 mL, iv after 60 mins by gamma counting; type: ADME, organism-based, CCRF S-180; settings: in vivo, 1 h
# Lung [34] = test: Biodistribution in mouse S180 cells xenografted Kunming mouse lung at 370 kBq/0.1 mL, iv after 60 mins by gamma counting; type: ADME, organism-based, CCRF S-180; settings: in vivo, 1 h
# Kidney [35] = test: Biodistribution in mouse S180 cells xenografted Kunming mouse kidney at 370 kBq/0.1 mL, iv after 60 mins by gamma counting; type: ADME, organism-based, CCRF S-180; settings: in vivo, 1 h
# Brain [36] = test: Biodistribution in mouse S180 cells xenografted Kunming mouse brain at 370 kBq/0.1 mL, iv after 60 mins by gamma counting; type: ADME, organism-based, CCRF S-180; settings: in vivo, 1 h
# Blood [37] = test: Biodistribution in mouse S180 cells xenografted Kunming mouse blood at 370 kBq/0.1 mL, iv after 60 mins by gamma counting; type: ADME, organism-based, CCRF S-180; settings: in vivo, 1 h
# Mus musculus [38] = test: Biodistribution in mouse S180 cells xenografted Kunming mouse tumor at 370 kBq/0.1 mL, iv after 60 mins by gamma counting; type: ADME, organism-based, Neoplasm, CCRF S-180; settings: in vivo, 1 h
# Nucleic Acid [39] = test: Ratio of drug level in tumor to brain in mouse S180 cells xenografted Kunming mouse at 370 kBq/0.1 mL, iv after 60 mins by gamma counting; type: ADME, organism-based, CCRF S-180; settings: in vivo, 1 h
# Nucleic Acid [40] = test: Ratio of drug level in tumor to blood in mouse S180 cells xenografted Kunming mouse at 370 kBq/0.1 mL, iv after 60 mins by gamma counting; type: ADME, organism-based, CCRF S-180; settings: tumour, 1 h
# Liver [41] = test: Biodistribution in mouse S180 cells xenografted Kunming mouse liver at 370 kBq/0.1 mL, iv after 120 mins by gamma counting; type: ADME, organism-based, CCRF S-180; settings: in vivo, 2 h
# Spleen = test: Biodistribution in mouse S180 cells xenografted Kunming mouse spleen at 370 kBq/0.1 mL, iv after 120 mins by gamma counting; type: ADME, organism-based, CCRF S-180; settings: in vivo, 2 h
smiles,measurement,setting,value
Cc1cc(NCCNC(=O)c2ccc([N+](=O)[O-])cc2[18F])n2ncc(C#N)c2n1,Drug uptake,Lung [1],0.19 % ID/g
same,Drug uptake,Kidney [2],0.74 % ID/g
same,Drug uptake,Muscle tissue [3],0.28 % ID/g
same,Drug uptake,Blood [4],0.09 % ID/g
same,Ratio,Nucleic Acid [5],0.77
same,Ratio,Nucleic Acid [6],2.5
same,logP,[7],0.69
same,Stability,Plasma,Stable
same,Drug uptake,CCRF S-180 [8],< 7%
same,Drug uptake,CCRF S-180 [9],9%
same,Drug uptake,Heart [10],5.77 % ID/g
same,Drug uptake,Liver [11],17.9 % ID/g
same,Drug uptake,Lung [12],5.6 % ID/g
same,Drug uptake,Brain [13],0.38 % ID/g
same,Drug uptake,Muscle tissue [14],3.82 % ID/g
same,Drug uptake,Blood [15],5.23 % ID/g
same,Drug uptake,Mus musculus [16],2.26 % ID/g
same,Ratio,Nucleic Acid [17],0.59
same,Drug uptake,Heart [18],2.78 % ID/g
same,Drug uptake,Liver [19],10.12 % ID/g
same,Drug uptake,Kidney [20],8.45 % ID/g
same,Drug uptake,Brain [21],0.16 % ID/g
same,Drug uptake,Muscle tissue [22],2.07 % ID/g
same,Drug uptake,Blood [23],2.5 % ID/g
same,Ratio,Nucleic Acid [24],12.35
same,Drug uptake,Liver [25],7.3 % ID/g
same,Drug uptake,Lung [26],1.19 % ID/g
same,Drug uptake,Brain [27],0.12 % ID/g
same,Drug uptake,Blood [28],1.42 % ID/g
same,Drug uptake,Mus musculus [29],1.24 % ID/g
same,Ratio,Nucleic Acid [30],10.44
same,Ratio,Nucleic Acid [31],0.88
same,Drug uptake,Heart [32],0.63 % ID/g
same,Drug uptake,Liver [33],4.07 % ID/g
same,Drug uptake,Lung [34],0.56 % ID/g
same,Drug uptake,Kidney [35],1.83 % ID/g
same,Drug uptake,Brain [36],0.08 % ID/g
same,Drug uptake,Blood [37],0.45 % ID/g
same,Drug uptake,Mus musculus [38],0.74 % ID/g
same,Ratio,Nucleic Acid [39],8.69
same,Ratio,Nucleic Acid [40],1.66
same,Drug uptake,Liver [41],2.05 % ID/g
same,Drug uptake,Spleen,0.14 % ID/g
Cc1cc(NCC[18F])n2ncc(C#N)c2n1,Drug uptake,Lung [1],2.54 % ID/g
same,Drug uptake,Kidney [2],1.92 % ID/g
same,Drug uptake,Muscle tissue [3],2.64 % ID/g
same,Drug uptake,Blood [4],2.95 % ID/g
same,Ratio,Nucleic Acid [5],1.09
same,Ratio,Nucleic Acid [6],0.98
same,logP,[7],0.68
same,Stability,Plasma,Stable
same,fold change (FC),CCRF S-180 [8],2
same,Drug uptake,CCRF S-180 [9],9%
same,Drug uptake,Heart [10],5.53 % ID/g
same,Drug uptake,Liver [11],6.99 % ID/g
same,Drug uptake,Lung [12],6.61 % ID/g
same,Drug uptake,Brain [13],3.17 % ID/g
same,Drug uptake,Muscle tissue [14],3.99 % ID/g
same,Drug uptake,Blood [15],4.83 % ID/g
same,Drug uptake,Mus musculus [16],1.88 % ID/g
same,Ratio,Nucleic Acid [17],0.47
same,Drug uptake,Heart [18],3.57 % ID/g
same,Drug uptake,Liver [19],4.02 % ID/g
same,Drug uptake,Kidney [20],5.04 % ID/g
same,Drug uptake,Brain [21],2.7 % ID/g
same,Drug uptake,Muscle tissue [22],3.84 % ID/g
same,Drug uptake,Blood [23],4.65 % ID/g
same,Ratio,Nucleic Acid [24],1.62
same,Drug uptake,Liver [25],3.17 % ID/g
same,Drug uptake,Lung [26],3.77 % ID/g
same,Drug uptake,Brain [27],2.47 % ID/g
same,Drug uptake,Blood [28],4.49 % ID/g
same,Drug uptake,Mus musculus [29],5.51 % ID/g
same,Ratio,Nucleic Acid [30],2.23
same,Ratio,Nucleic Acid [31],1.23
same,Drug uptake,Heart [32],3.46 % ID/g
same,Drug uptake,Liver [33],2.45 % ID/g
same,Drug uptake,Lung [34],2.78 % ID/g
same,Drug uptake,Kidney [35],2.58 % ID/g
same,Drug uptake,Brain [36],1.93 % ID/g
same,Drug uptake,Blood [37],3.63 % ID/g
same,Drug uptake,Mus musculus [38],2.95 % ID/g
same,Ratio,Nucleic Acid [39],1.53
same,Ratio,Nucleic Acid [40],0.81
same,Drug uptake,Liver [41],1.84 % ID/g
same,Drug uptake,Spleen,2.15 % ID/g
